From article PMC7862291, “Full-length in meso structure and mechanism of rat kynurenine 3-monooxygenase inhibition” (Communications Biology, 2021)
Values joined by “and” are separate entries in the source; they are usually repeats but may differ in a detail not shown here. Equal entries are not always repeated.

What was measured:
[1] = biological target: T1, HEK293 cells stably expressing human KMO (Homo sapiens, UniProt O15229); experiment: Cell-based human KMO inhibition assay (LC/MS of 3-hydroxykynurenine)
T1 construct: expressed in transfected cells
T1 sequence (O15229 whole entry): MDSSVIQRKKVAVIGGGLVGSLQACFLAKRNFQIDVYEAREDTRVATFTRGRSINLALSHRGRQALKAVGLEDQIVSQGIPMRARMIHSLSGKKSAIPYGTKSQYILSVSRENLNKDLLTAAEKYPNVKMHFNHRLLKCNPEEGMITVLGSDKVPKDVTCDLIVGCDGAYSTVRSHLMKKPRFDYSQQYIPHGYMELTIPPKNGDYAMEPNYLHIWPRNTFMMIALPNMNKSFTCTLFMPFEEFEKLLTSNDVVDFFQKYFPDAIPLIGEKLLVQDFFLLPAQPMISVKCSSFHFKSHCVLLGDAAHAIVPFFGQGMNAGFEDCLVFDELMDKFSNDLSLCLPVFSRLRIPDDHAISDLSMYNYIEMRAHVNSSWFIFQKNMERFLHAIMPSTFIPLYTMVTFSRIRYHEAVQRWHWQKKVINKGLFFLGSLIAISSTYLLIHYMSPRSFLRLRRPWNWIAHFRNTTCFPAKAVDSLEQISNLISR
Method: (§1) HEK293 cells stably expressing human or rat KMO were maintained in DMEM containing 10% fetal bovine serum, 50 units/mL penicillin, 50 μg/mL streptomycin and 0.2 mg⁄mL zeocine. […] After 2 overnights, the medium was replaced with 10 μL/well of assay buffer (1 × HBSS containing 20 mM HEPES). Ten microliters per well of the diluted test compounds (final, 0–30 μM, 0.3% DMSO) were added to the respective wells. After ~30 min of pre-incubation at 37 °C, reactions were started by adding 20 μL of substrate solution containing 0.2 mM kynurenine. Reactions were run for 2 h at 37 °C, the assay buffer was discarded and the plate was immediately frozen and stored at −30 °C until LC/MS analysis.
(§2) An 80 µL volume of cold acetonitrile with 2% formic acid was added to the cell pellet in a 384-well plate and centrifuged at 3000 rpm for 10 min at 4 °C. A 40 µL volume of the supernatant was transferred to a new 384-well plate and evaporated to dryness under nitrogen gas at 45 °C. The residue was reconstituted in 100 µL of acetonitrile/water (10:90, v/v) with 0.1% formic acid, and 1 µL was injected into the LC-MS/MS system.
(§3) LC/MS/MS was performed on a Shimadzu UFLC Nexera X2 (Shimadzu Corporation, Japan) and an QTRAP® 5500 LC-MS/MS System (SCIEX, Framingham, USA). Chromatographic separation was performed using an Allure PFP Propyl analytical column (5 µm, 2.1 × 100 mm) maintained at 50 °C. The autosampler temperature was set at 15 °C. The mobile phase consisted of formic acid/water/acetonitrile/methanol (0.5/500/250/250, v/v/v/v) and the flow rate was set at 0.3 mL/min. 3-hydroxykynurenine was eluted from the LC column at a retention time of 1.2 min. The MS system was operated using electrospray ionization (ESI) in positive mode. The optimum conditions were curtain gas, 20 psi; ion spray voltage, 5500 V; heated nebulizer temperature (TEM), 700 °C; nebulizing gas (GS1), 70 psi; and heater gas (GS2), 70 psi. […] Analyst® software (SCIEX, Framingham, USA) was used for system control and MultiQuant™ Software (SCIEX, Framingham, USA) was used for data analysis.
(§4) Compound assays were analysed and plotted on graphs using Prism (GraphPad Software Inc. San Diego, CA, USA).

Rat KMO = biological target: T2, Rat KMO (Rattus norvegicus, UniProt O88867); experiment: Rat KMO enzyme (cell-free) assay, NADPH consumption by absorbance; type: biochemical
T2 construct: The GST-tagged full-length KMO (1-478) baculovirus vector contained a thrombin cleavage site; GST (thrombin cleavage site between GST and KMO) (N, cleaved yes); made in house; host or cells: Spodoptera frugiperda (Sf9), baculovirus
T2 sequence (O88867 whole entry): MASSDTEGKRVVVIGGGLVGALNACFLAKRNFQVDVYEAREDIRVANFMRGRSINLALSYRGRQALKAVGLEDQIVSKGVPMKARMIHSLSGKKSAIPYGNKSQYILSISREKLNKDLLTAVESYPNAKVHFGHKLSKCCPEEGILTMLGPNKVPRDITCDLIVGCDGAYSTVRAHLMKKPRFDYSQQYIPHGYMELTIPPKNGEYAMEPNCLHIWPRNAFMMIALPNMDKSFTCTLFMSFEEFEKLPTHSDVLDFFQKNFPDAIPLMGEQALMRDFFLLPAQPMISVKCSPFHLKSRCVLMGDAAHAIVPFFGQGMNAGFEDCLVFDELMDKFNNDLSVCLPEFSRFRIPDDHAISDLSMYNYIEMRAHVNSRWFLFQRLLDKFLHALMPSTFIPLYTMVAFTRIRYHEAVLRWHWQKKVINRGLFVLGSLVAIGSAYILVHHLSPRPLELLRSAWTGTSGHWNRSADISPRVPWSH
Method: (§5) Human KMO was purchased from Origene and used to assay compounds. Full-length Rat-KMO purified for crystallisation was used to assay compounds. Full-length Rat-KMO-expressing membranes were used for mutant assays (Fig. 4b) only. […] Images were taken using Odyssey CLX (LI-COR Biosciences) and quantified using ImageStudio2.0 (LI-COR Biosciences) software.
(§6) Test compounds were dissolved in DMSO and diluted with assay buffer containing 50 mM HEPES, 2 mM MgCl2, 0.5 mM EGTA, 1 mM DTT, 0.05% Tween20 and 0.005% of antiform SI (pH = about 7.9) to prepare a 4% DMSO solution. […] After 5 min of pre-incubation, reactions were started by adding 10 μL of substrate solution containing 2.4 mM kynurenine and 0.6 mM NADPH. Reactions were run for 90 min at 30 °C, then terminated by adding 5 μL of stop buffer (40 mM maleimide, 2 mM WST-9 and 0.1 mM 1-methoky PMS in water). […] Liposomal assays were performed in the same manner except that the composition of the assay buffer was changed (phosphate-buffered saline, 2 mM MgCl2, 1 mM DTT, 0.05% Tween 20).
as §4

[2] = biological target: T3, HEK293 cells stably expressing rat KMO (Rattus norvegicus, UniProt O88867); experiment: Cell-based rat KMO inhibition assay (LC/MS of 3-hydroxykynurenine)
T3 construct: expressed in transfected cells
T3 sequence (O88867 whole entry): as above
Method: as §1, §2, §3, §4

hKMO = biological target: T4, hKMO (Homo sapiens, UniProt O15229); experiment: Human KMO enzyme (cell-free) assay, NADPH consumption by absorbance; type: biochemical
T4 construct: purchased Origene
T4 sequence (O15229 whole entry): as the sequence (O15229 whole entry) above
Method: as §5, §6, §4

- inhibition at 0.03 µM ([1]; HEK293, conc 0.03 μM, duplicates, read-out: inhibition rate, Hs-KMO cellular assay (Figure 1C source data)): 51.3%
- inhibition at 0.1 µM ([1]; HEK293, conc 0.1 μM, duplicates, read-out: inhibition rate, Hs-KMO cellular assay (Figure 1C source data)): 76.7%
- inhibition at 0.3 µM ([1]; HEK293, conc 0.3 μM, duplicates, read-out: inhibition rate, Hs-KMO cellular assay (Figure 1C source data)): 92.2%
- inhibition at 1 µM ([1]; HEK293, conc 1 μM, duplicates, read-out: inhibition rate, Hs-KMO cellular assay (Figure 1C source data)): 102%
- inhibition at 3 µM ([1]; HEK293, conc 3 μM, duplicates, read-out: inhibition rate, Hs-KMO cellular assay (Figure 1C source data)): 104%
- inhibition at 10 µM ([1]; HEK293, conc 10 μM, duplicates, read-out: inhibition rate, Hs-KMO cellular assay (Figure 1C source data)): 104%
- inhibition at 30 µM ([1]; HEK293, conc 30 μM, duplicates, read-out: inhibition rate, Hs-KMO cellular assay (Figure 1C source data)): 105%
- IC50 ([1]; HEK293 cells expressing human KMO, LC/MS, read-out: Human cell-based assay IC50): 30 nM
- inhibition rate, Hs-KMO cellular assay (Figure 1C source data) ([1]; conc 0.03 μM, duplicates): 49.094%
- inhibition rate, Hs-KMO cellular assay (Figure 1C source data) ([1]; conc 0.1 μM, duplicates): 80.095%
- inhibition rate, Hs-KMO cellular assay (Figure 1C source data) ([1]; conc 0.3 μM, duplicates): 94.377%
- inhibition rate, Hs-KMO cellular assay (Figure 1C source data) ([1]; conc 1 μM, duplicates): 98.875%
- inhibition rate, Hs-KMO cellular assay (Figure 1C source data) ([1]; conc 3 μM, duplicates): 103.175%
- inhibition rate, Hs-KMO cellular assay (Figure 1C source data) ([1]; conc 10 μM, duplicates): 102.973%
- inhibition rate, Hs-KMO cellular assay (Figure 1C source data) ([1]; conc 30 μM, duplicates): 104.572%
- IC50 (Rat KMO; cell-free enzyme assay, high kynurenine): 150 nM
- inhibition rate, Rat-KMO cell-free assay (Figure 1B source data) (Rat KMO; conc 0.03 μM, duplicates): 20.744%
- inhibition at 0.03 µM (Rat KMO; conc 0.03 μM, duplicates, read-out: inhibition rate, Rat-KMO cell-free assay (Figure 1B source data)): 18%
- inhibition rate, Rat-KMO cell-free assay (Figure 1B source data) (Rat KMO; conc 0.1 μM, duplicates): 47.122%
- inhibition at 0.1 µM (Rat KMO; conc 0.1 μM, duplicates, read-out: inhibition rate, Rat-KMO cell-free assay (Figure 1B source data)): 46%
- inhibition rate, Rat-KMO cell-free assay (Figure 1B source data) (Rat KMO; conc 0.3 μM, duplicates): 63.717%
- inhibition at 0.3 µM (Rat KMO; conc 0.3 μM, duplicates, read-out: inhibition rate, Rat-KMO cell-free assay (Figure 1B source data)): 62.8%
- inhibition rate, Rat-KMO cell-free assay (Figure 1B source data) (Rat KMO; conc 1 μM, duplicates): 81.108%
- inhibition at 1 µM (Rat KMO; conc 1 μM, duplicates, read-out: inhibition rate, Rat-KMO cell-free assay (Figure 1B source data)): 84.3%
- inhibition rate, Rat-KMO cell-free assay (Figure 1B source data) (Rat KMO; conc 3 μM, duplicates): 90.360%
- inhibition at 3 µM (Rat KMO; conc 3 μM, duplicates, read-out: inhibition rate, Rat-KMO cell-free assay (Figure 1B source data)): 87.2%
- inhibition rate, Rat-KMO cell-free assay (Figure 1B source data) (Rat KMO; conc 10 μM, duplicates): 90.175%
- inhibition at 10 µM (Rat KMO; conc 10 μM, duplicates, read-out: inhibition rate, Rat-KMO cell-free assay (Figure 1B source data)): 91.4%
- inhibition rate, Rat-KMO cell-free assay (Figure 1B source data) (Rat KMO; conc 30 μM, duplicates): 94.310%
- inhibition at 30 µM (Rat KMO; conc 30 μM, duplicates, read-out: inhibition rate, Rat-KMO cell-free assay (Figure 1B source data)): 91.7%
- inhibition rate, Rat-KMO cell-free assay (Figure 1B source data) (Rat KMO; conc 100 μM, duplicates): 101.150%
- inhibition at 100 µM (Rat KMO; conc 100 μM, duplicates, read-out: inhibition rate, Rat-KMO cell-free assay (Figure 1B source data)): 89.9%
- inhibition at 0.1 µM ([2]; HEK293, conc 0.1 μM, duplicates, read-out: inhibition rate, Rat-KMO cellular assay (Figure 1D source data)): 6.06%
- inhibition at 0.3 µM ([2]; HEK293, conc 0.3 μM, duplicates, read-out: inhibition rate, Rat-KMO cellular assay (Figure 1D source data)): 28.6%
- inhibition at 1 µM ([2]; HEK293, conc 1 μM, duplicates, read-out: inhibition rate, Rat-KMO cellular assay (Figure 1D source data)): 29.2%
- inhibition at 3 µM ([2]; HEK293, conc 3 μM, duplicates, read-out: inhibition rate, Rat-KMO cellular assay (Figure 1D source data)): 55.7%
- inhibition at 10 µM ([2]; HEK293, conc 10 μM, duplicates, read-out: inhibition rate, Rat-KMO cellular assay (Figure 1D source data)): 81.2%
- inhibition at 30 µM ([2]; HEK293, conc 30 μM, duplicates, read-out: inhibition rate, Rat-KMO cellular assay (Figure 1D source data)): 94.7%
- IC50 ([2]; HEK293 cells expressing rat KMO, LC/MS): 1900 nM
- inhibition rate, Rat-KMO cellular assay (Figure 1D source data) ([2]; conc 0.1 μM, duplicates): 5.770%
- inhibition rate, Rat-KMO cellular assay (Figure 1D source data) ([2]; conc 0.3 μM, duplicates): 28.560%
- inhibition rate, Rat-KMO cellular assay (Figure 1D source data) ([2]; conc 1 μM, duplicates): 33.805%
- inhibition rate, Rat-KMO cellular assay (Figure 1D source data) ([2]; conc 3 μM, duplicates): 50.255%
- inhibition rate, Rat-KMO cellular assay (Figure 1D source data) ([2]; conc 10 μM, duplicates): 82.819%
- inhibition rate, Rat-KMO cellular assay (Figure 1D source data) ([2]; conc 30 μM, duplicates): 94.698%
- IC50 (hKMO; cell-free enzyme assay, high kynurenine, read-out: Human KMO IC50): 7.1 nM
- inhibition rate, Hs-KMO cell-free assay (Figure 1A source data) (hKMO; conc 0.0003 μM, duplicates): 0.420% and -1.736%
- inhibition rate, Hs-KMO cell-free assay (Figure 1A source data) (hKMO; conc 0.001 μM, duplicates): 9.914%
- inhibition at 0.001 µM (hKMO; conc 0.001 μM, duplicates, read-out: inhibition rate, Hs-KMO cell-free assay (Figure 1A source data)): 12.1%
- inhibition rate, Hs-KMO cell-free assay (Figure 1A source data) (hKMO; conc 0.003 μM, duplicates): 25.289%
- inhibition at 0.003 µM (hKMO; conc 0.003 μM, duplicates, read-out: inhibition rate, Hs-KMO cell-free assay (Figure 1A source data)): 27.2%
- inhibition rate, Hs-KMO cell-free assay (Figure 1A source data) (hKMO; conc 0.01 μM, duplicates): 59.651%
- inhibition at 0.01 µM (hKMO; conc 0.01 μM, duplicates, read-out: inhibition rate, Hs-KMO cell-free assay (Figure 1A source data)): 57.4%
- inhibition rate, Hs-KMO cell-free assay (Figure 1A source data) (hKMO; conc 0.03 μM, duplicates): 87.349%
- inhibition at 0.03 µM (hKMO; conc 0.03 μM, duplicates, read-out: inhibition rate, Hs-KMO cell-free assay (Figure 1A source data)): 85.6%
- inhibition rate, Hs-KMO cell-free assay (Figure 1A source data) (hKMO; conc 0.1 μM, duplicates): 95.022%
- inhibition at 0.1 µM (hKMO; conc 0.1 μM, duplicates, read-out: inhibition rate, Hs-KMO cell-free assay (Figure 1A source data)): 96.5%
- inhibition rate, Hs-KMO cell-free assay (Figure 1A source data) (hKMO; conc 0.3 μM, duplicates): 105.860%
- inhibition at 0.3 µM (hKMO; conc 0.3 μM, duplicates, read-out: inhibition rate, Hs-KMO cell-free assay (Figure 1A source data)): 100%
- inhibition rate, Hs-KMO cell-free assay (Figure 1A source data) (hKMO; conc 1 μM, duplicates): 100.287%
- inhibition at 1 µM (hKMO; conc 1 μM, duplicates, read-out: inhibition rate, Hs-KMO cell-free assay (Figure 1A source data)): 102%
Structure (SMILES): Cc1cnn(-c2cccc(C(=O)O)c2)c1-c1ccc(Cl)c(F)c1 [Compound 2]
